# Source: US20070167452A1, “Therapeutic amide derivatives” (PFIZER, INC., priority 2004, published 2007)
# Assays:
# [1] = target: HERG potassium channel (Homo sapiens, UniProt Q12809); assay: Inhibition at HERG potassium channel (prior-art compound); details: background statement on prior-art compound of WO 0208928
# [2] = target: T1, NR2B receptor (Rattus norvegicus, UniProt P35439+Q00960); assay: NR2B Binding Assay; details: forebrain P2 membranes of male CD rats; 5 nM [3H] NR2B ligand
# T1 construct: Membranes were prepared by homogenization of forebrain of male CD rats; from tissue; host or cells: forebrain of male CD rats (P2 membrane)
# Experimental: The activity of the cycloalkylene amide compounds of the present invention, as NR2B antagonists, is determined by their ability to inhibit the binding of NR2B subunit at its receptor sites employing radioactive ligands.
# The NR^2B antagonist activity of the cycloalkylene amide compounds is evaluated by using the standard assay procedure described in, for example, J. Pharmacol., 331, pp 117-126, 1997. This method essentially involves determining the concentration of the individual compound required to reduce the amount of radiolabelled NR2B ligands by 50% at their receptor sites, thereby affording characteristic IC50 values for each compound tested. More specifically, the assay is carried out as follows.
# Membranes were prepared by homogenization of forebrain of male CD rats weighing between 170˜190 g by using glass-Teflon homogenizer in 0.32 M sucrose at 4° C. The crude nuclear pellet was removed by centrifugation at 1000×g for 10 min, and the supernatant centrifuged at 17000×g for 25 min. The resulting pellet was resuspended in 5 mM Tris acetate pH 7.4 at 4° C. for 10 min to lyse cellular particles and again centrifuged at 17000×g. The resulting pellet (P2 membrane) was washed twice in Tris acetate, resuspended at 5.5 mg protein/ml and stored at −20° C. until use. All the manipulation was done on ice, and stock solution and equipment were kept on ice at all time.
# For the saturation assay, receptor saturation was determined by incubating [^3H]-1-[(1S*,2S*)-2-hydroxy-2-(4-hydroxyphenyl)-1-methylethyl]-4-phenylpiperidin-4-ol and 50 μg protein of P2 membrane for 60 minutes at room temperature in a final 100 μl of incubation buffer (50 mM Tris HCl, pH7.4). Total and non-specific bindings (in the presence of 10 μM of unlabeled 1-[(1S*,2S*)-2-hydroxy-2-(4-hydroxyphenyl)-1-methylethyl]-4-phenylpiperidin-4-ol) were determined in a range of [^3H]-1-[(1S*,2S*)-2-hydroxy-2-(4-hydroxyphenyl)-1-methylethyl]-4-phenylpiperidin-4-ol concentrations (0.625 nM to 60 nM).
# For the competition assay, test compounds were incubated in duplicate with 5 nM [^3H]-1-[(1S*,2S*)-2-hydroxy-2-(4-hydroxyphenyl)-1-methylethyl]-4-phenylpiperidin-4-ol and 50 μg protein of P2 membrane for 60 minutes at room temperature in a final 100 μl of 50 mM Tris HCl buffer (pH7.4). Nonspecific binding was determined by 10 μM of unlabeled 1-[(1S*,2S*)-2-hydroxy-2-(4-hydroxyphenyl)-1-methylethyl]-4-phenylpiperidin-4-ol (25 μl). The saturation derived KD gained in saturation assay was used for all Ki calculations.
# All incubations were terminated by rapid vacuum filtration over 0.2% polyethyleneimine soaked Whatman GF/B glass fibre filter paper using a SKATRON cell harvester followed by three washes with ice-cold filtration buffer (5 mM Tris HCl, pH 7.4.). Receptor-bound radioactivity was quantified by liquid scintillation counting using Packard LS counter. Competition assays were performed by counting Wallac GF/B filters on Betaplate scintillation counter (Wallac).
# [3] = target: Human HERG (Homo sapiens, UniProt Q12809)
# Sequence of Human HERG (Q12809 whole entry): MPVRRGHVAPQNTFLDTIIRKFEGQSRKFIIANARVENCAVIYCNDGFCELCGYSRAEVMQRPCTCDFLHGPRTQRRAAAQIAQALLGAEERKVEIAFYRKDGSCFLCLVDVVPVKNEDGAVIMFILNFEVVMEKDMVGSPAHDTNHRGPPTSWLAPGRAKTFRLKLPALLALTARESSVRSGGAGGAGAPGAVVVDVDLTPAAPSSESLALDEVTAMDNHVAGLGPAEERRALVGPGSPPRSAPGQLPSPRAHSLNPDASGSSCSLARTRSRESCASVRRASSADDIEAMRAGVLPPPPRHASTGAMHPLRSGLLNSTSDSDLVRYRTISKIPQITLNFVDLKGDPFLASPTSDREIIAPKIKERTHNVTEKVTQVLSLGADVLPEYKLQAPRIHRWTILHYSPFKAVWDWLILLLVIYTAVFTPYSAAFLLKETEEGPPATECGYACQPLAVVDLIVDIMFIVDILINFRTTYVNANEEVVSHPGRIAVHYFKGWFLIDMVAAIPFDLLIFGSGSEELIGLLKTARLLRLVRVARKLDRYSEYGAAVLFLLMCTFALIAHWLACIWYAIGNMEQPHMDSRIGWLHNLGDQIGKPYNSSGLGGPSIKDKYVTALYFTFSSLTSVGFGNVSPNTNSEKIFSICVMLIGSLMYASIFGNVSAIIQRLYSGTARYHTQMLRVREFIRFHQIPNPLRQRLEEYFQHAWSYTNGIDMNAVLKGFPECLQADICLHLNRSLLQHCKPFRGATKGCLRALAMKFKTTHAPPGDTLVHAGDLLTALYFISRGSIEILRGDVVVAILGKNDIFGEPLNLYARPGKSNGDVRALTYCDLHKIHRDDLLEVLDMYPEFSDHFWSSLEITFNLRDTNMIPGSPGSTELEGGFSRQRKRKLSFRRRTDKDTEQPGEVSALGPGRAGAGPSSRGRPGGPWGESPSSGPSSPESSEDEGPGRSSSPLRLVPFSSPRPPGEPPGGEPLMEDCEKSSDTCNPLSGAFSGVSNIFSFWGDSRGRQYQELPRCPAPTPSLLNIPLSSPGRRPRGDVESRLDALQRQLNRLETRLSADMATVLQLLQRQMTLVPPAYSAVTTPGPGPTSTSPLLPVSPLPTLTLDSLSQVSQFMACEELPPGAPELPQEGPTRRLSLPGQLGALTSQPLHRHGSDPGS
# Experimental: Human HERG transfected HEK293S cells were prepared and grown in-house. The collected cells were suspended in 50 mM Tris-HCl (pH 7.4 at 4° C.) and homogenized using a hand held Polytron PT 1200 disruptor set at full power for 20 sec on ice. The homogenates were centrifuged at 48,000×g at 4° C. for 20 min. The pellets were then resuspended, homogenized, and centrifuged once more in the same manner. The final pellets were resuspended in an appropriate volume of 50 mM Tris-HCl, 10 mM KCl, 1 mM MgCl2 (pH 7.4 at 4° C.), homogenized, aliquoted and stored at −80° C. until use. An aliquot of membrane fractions was used for protein concentration determination using BCA protein assay kit (PIERCE) and ARVOsx plate reader (Wallac).
# Binding assays were conducted in a total volume of 200 μl in 96-well plates. Twenty μl of test compounds were incubated with 20 μl of [^3H]-dofetilide (Amersham, final 5 nM) and 160 μl of membrane homogenate (25 μg protein) for 60 minutes at room temperature. Nonspecific binding was determined by 10 μM dofetilide at the final concentration. Incubation was terminated by rapid vacuum filtration over 0.5% presoaked GF/B Betaplate filter using Skatron cell harvester with 50 mM Tris-HCl, 10 mM KCl, 1 mM MgCl2, pH 7.4 at 4° C. The filters were dried, put into sample bags and filled with Betaplate Scint. Radioactivity bound to filter was counted with Wallac Betaplate counter.
# T1 sequence (Q00960 27-1482, other chains not shown): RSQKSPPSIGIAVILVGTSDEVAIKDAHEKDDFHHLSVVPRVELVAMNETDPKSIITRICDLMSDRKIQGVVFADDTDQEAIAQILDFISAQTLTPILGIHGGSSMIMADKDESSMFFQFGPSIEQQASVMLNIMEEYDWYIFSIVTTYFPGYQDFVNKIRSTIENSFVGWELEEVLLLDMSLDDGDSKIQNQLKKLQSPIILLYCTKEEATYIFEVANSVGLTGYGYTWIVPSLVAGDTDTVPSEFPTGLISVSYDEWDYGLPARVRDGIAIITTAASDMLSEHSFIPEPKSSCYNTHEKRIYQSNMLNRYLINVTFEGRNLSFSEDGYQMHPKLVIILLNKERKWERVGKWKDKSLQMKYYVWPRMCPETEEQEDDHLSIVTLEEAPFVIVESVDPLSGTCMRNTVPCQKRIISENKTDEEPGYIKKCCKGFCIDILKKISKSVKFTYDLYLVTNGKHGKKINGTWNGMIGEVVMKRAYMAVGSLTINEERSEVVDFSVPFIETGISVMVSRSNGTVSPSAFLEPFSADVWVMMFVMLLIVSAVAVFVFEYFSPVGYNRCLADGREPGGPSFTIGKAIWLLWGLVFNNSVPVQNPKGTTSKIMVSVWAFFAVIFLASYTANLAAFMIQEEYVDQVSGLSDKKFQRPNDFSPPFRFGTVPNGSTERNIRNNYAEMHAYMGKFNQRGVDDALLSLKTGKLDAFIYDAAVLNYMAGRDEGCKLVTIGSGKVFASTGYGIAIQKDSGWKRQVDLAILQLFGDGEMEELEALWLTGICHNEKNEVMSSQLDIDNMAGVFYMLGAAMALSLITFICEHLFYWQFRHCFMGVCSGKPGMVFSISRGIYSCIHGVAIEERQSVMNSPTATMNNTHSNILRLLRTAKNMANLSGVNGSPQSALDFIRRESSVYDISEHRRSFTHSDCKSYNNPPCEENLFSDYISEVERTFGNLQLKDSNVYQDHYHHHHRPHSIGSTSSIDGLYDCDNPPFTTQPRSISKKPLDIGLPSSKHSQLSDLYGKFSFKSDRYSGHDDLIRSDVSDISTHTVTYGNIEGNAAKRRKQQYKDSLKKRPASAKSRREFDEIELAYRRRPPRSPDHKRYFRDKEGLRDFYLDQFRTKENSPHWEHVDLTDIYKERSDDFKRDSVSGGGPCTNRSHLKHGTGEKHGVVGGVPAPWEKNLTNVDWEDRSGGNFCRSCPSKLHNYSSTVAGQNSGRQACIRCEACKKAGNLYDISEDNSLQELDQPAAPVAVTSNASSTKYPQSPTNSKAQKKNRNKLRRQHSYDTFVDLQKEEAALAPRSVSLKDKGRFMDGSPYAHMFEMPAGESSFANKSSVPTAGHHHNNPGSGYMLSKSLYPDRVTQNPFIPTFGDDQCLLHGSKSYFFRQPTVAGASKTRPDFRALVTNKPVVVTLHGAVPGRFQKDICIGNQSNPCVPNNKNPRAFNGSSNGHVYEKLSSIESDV
# Sequence of HERG potassium channel (Q12809 whole entry): as the sequence (Q12809 whole entry) above
SMILES,IC50 [1] [nM],IC50 [2] [nM],IC50 [3] [nM]
O=C(NCC1CCN(CCCc2ccccc2)CC1)c1ccc(O)cc1 [Compound (i)],< 3000,–,–
"O=C(NC[C@H]1CC[C@@H](OCCc2ccccc2)CC1)c1ccc(O)nc1 [Example 71, 6-Hydroxy-N-{[cis-4-(2-phenethoxy)cyclohexyl]methyl}nicotinamide]",–,7.1,> 100000
